# Experimental data reported in patent US20250002846A1, “METHOD FOR CONSTRUCTION OF INNER EAR ORGANOID” (INDUSTRY FOUNDATION OF CHONNAM NATIONAL UNIVERSITY, priority 2022, published 2025).
# Experiments:
# [1] = tested on: M-IEO-derived hair cell-like cells; test: Patch clamp of hair cell-like cells from microhole chip inner ear organoids, with or without cisplatin; type: cell-based, mouse; conditions: 68 pA−20 pA at 60 mV (so in the source)
# Procedure: (§1) A 10 mV nominal increment was made at the holding potential of −84 mV covering the range of −124 to +54 mV for a duration of […], before returning to a constant potential of −44 mV (tail current, 50 ms). The bath solution was prepared using L-15 media (Gibco) and the pipette solution was prepared using 150 mM KCl, 5 mM HEPES, 0.1 mM CaCl2, 5 mM EGTA, 3.5 mM Mg ATP, pH 7.3 (KOH), and Osmolality 288 mmol/kg. To obtain damaged IEO, IEO was treated with […] of cisplatin on day 30 for 48 hours (100 mg cisplatin/0.33 mL (D. W) a 3 μL cisplatin +20 mL medium). To apply the IEO for patch clamp, the IEO was treated with trypsin for 5 minutes and the detached cells were detected with a patch pipette (n=4). Whole cells of IEO-derived hair cell-like cells were subjected to close-seal technique, in order to compare the electrophysiology of IEOS formed in microhole chips (hereinafter “M-IEO”) and IEOs formed in U well plates (hereinafter “U-IEO”) using patch clamp assays (FIG. 5A). In the 3D structure of the IEO, cells were isolated using single cell trypsinization. First, the morphology of mouse organs of Corti hair cells, mESC (R1/E), and IEO-derived hair cell-like cells was confirmed (FIG. 5B). […]
# [2] = tested on: U-IEO-derived hair cell-like cells; test: Patch clamp of hair cell-like cells from U well plate inner ear organoids, with or without cisplatin; type: cell-based, mouse
# Procedure: as §1
smiles,measurement,setting,value
N.N.[Cl][Pt][Cl] [cisplatin],"loss of current, without versus with cisplatin",[1],48 pA
same,electrophysiology after culture with cisplatin,[2]; 3-day culture with or without cisplatin,significantly reduced electrophysiology
same,"loss of current, without versus with cisplatin","[2]; U-IEO, 138 pA−28 pA (so in the source)",110 pA
